Assay [1] relates to HCT-116. Nature of the assay: Cytotoxicity against human HCT-116 cells assessed as reduction in cell viability after 72 hrs by Alamar blue assay. In kind it is functional. To be noted: read-out: LD50 (the source's name). On the technique in general: The colour change of resazurin is a common sign of viable cells or microbes.
In assay [2] the test system is A549. Briefly: Antiproliferative activity against human A549 cells assessed as inhibition of cell proliferation after 48 hrs by MTT assay. Type of assay: functional. The note with it: read-out: LD50 (the source's name). (In general: Tetrazolium dyes change colour on reduction, which living cells bring about.)
Assay [3] has as its target DNA topoisomerase 2-alpha (Homo sapiens) (UniProt P11388). Nature of the assay: Inhibition of wild type human topoisomerase-2alpha expressed in Saccharomyces cerevisiae JEL1deltatop1 assessed as inhibition of supercoiled DNA relaxation at 100 to 200 uM using negatively supercoiled pBRDNA as substrate incubated for 15 mins in presence of ATP by gel electrophoresis. To be noted: dose microM 100-200, time 15.0 min.

The target is the same in assay [4]. Nature of the assay: Inhibition of wild type human topoisomerase-2alpha expressed in Saccharomyces cerevisiae JEL1deltatop1 assessed as induction of supercoiled DNA cleavage at 200 uM using negatively supercoiled pBRDNA as substrate incubated for 30 mins by gel electrophoresis.
The subject of assay [5] is A549. Briefly: Cytotoxicity against human A549 cells assessed as reduction in cell viability after 72 hrs by Alamar blue assay. Type of assay: functional. The note with it: read-out: LD50 (the source's name).
Assay [6] has as its target DNA topoisomerase 2-alpha (Homo sapiens) (UniProt P11388). Nature of the assay: Inhibition of wild type human topoisomerase-2alpha expressed in Saccharomyces cerevisiae JEL1deltatop1 assessed as induction of supercoiled DNA cleavage at 100 to 200 uM using negatively supercoiled pBRDNA as substrate incubated for 30 mins by gel electrophoresis. The note with it: dose microM 100-200, time 30.0 min.

The test system of assay [7] is HCT-116. Nature of the assay: Cell cycle arrest in human HCT-116 cells assessed as decrease in cell population at S phase after 48 hrs by propidium iodide staining based flow cytometry analysis. Type of assay: functional.
Assay [8] has as its system HCT-116. Briefly: Cell cycle arrest in human HCT-116 cells assessed as accumulation at sub-G1 phase after 48 hrs by propidium iodide staining based flow cytometry analysis. Type of assay: functional. In general terms: A flow cytometer gives signals particle by particle.
Assay [9] deals with DNA topoisomerase 2-alpha (Homo sapiens) (UniProt P11388). Briefly: Inhibition of wild type human topoisomerase-2alpha expressed in Saccharomyces cerevisiae JEL1deltatop1 assessed as induction of supercoiled DNA cleavage using negatively supercoiled pBRDNA as substrate incubated for 30 mins by gel electrophoresis. The note with it: dose microM 100-200, time 30.0 min.
Chain of DNA topoisomerase 2-alpha (Homo sapiens) (P11388 whole entry): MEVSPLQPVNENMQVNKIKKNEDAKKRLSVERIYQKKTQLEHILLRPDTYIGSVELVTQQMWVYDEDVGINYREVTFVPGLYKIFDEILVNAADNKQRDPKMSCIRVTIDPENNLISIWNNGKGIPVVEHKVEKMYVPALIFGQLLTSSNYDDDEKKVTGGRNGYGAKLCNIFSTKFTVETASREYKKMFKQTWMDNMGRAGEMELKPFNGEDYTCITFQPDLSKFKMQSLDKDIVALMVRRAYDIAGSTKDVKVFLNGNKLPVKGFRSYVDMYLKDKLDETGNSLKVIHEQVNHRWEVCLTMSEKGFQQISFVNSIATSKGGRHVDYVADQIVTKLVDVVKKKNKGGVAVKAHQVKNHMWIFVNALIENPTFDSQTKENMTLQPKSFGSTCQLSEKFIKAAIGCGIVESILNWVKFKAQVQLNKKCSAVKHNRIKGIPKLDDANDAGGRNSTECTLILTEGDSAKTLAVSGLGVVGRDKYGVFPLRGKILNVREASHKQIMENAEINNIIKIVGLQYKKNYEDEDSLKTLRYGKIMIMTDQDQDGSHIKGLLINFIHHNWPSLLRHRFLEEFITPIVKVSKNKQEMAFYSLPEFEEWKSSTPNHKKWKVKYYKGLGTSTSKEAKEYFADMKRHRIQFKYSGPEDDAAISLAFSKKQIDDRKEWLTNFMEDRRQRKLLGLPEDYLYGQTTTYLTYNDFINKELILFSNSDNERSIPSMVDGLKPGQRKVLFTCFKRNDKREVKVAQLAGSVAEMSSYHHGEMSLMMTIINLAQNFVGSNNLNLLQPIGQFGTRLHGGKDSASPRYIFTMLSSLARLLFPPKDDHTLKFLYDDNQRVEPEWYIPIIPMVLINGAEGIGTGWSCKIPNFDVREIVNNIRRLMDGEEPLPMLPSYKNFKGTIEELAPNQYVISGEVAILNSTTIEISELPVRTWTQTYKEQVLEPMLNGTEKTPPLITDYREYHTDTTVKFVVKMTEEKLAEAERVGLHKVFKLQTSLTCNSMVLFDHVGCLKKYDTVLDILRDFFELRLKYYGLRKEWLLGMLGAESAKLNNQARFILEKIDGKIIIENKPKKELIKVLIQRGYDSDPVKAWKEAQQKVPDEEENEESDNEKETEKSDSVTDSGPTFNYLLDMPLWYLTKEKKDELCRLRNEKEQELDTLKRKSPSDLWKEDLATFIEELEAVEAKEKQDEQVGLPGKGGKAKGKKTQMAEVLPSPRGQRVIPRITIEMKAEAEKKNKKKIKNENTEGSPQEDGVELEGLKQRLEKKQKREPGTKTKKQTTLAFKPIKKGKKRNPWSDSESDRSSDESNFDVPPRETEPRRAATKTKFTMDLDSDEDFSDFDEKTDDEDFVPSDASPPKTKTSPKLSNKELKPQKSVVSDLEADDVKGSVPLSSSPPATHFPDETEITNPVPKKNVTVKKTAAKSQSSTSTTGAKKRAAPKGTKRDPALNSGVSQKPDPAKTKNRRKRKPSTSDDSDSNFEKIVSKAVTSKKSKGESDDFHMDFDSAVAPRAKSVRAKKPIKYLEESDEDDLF

This note sets out measurements from ChEMBL document CHEMBL4699563, “Synthesis and evaluation of etoposide and podophyllotoxin analogs against topoisomerase IIα and HCT-116 cells” (2020).

Calls of active or inactive are those of the source. The rule behind the calls is not given here.

Consider `COc1cc([C@@H]2c3cc4c(cc3[C@@H](O[C@@H]3O[C@@H]5CO[C@@H](C)O[C@H]5[C@H](O)[C@H]3O)[C@H]3COC(=O)[C@H]23)OCO4)cc(OC)c1O` [ETOPOSIDE], for which the figures for the CC50 in the assay on HCT-116 [1] and in the assay on A549 [2] were 1.6 µM and 11.8 µM, respectively.

`COc1cc([C@@H]2c3cc4c(cc3[C@H](O)[C@H]3COC(=O)[C@H]23)OCO4)c(Br)c(OC)c1OC`: the inhibition entry in [3] is “inactive”.

Regarding `COc1cc([C@@H]2c3cc4c(cc3[C@@H](O)[C@H]3COC(=O)[C@H]23)OCO4)c(Cl)c(OC)c1O`, the CC50 in the assay on HCT-116 [1] was 33 µM; with A549 [5] it was 35 µM. Besides, in [4], the outcome was Active. Besides, the inhibition entry in assay [3] was “Active”.

`COc1cc([C@@H]2c3cc4c(cc3[C@@H](O[C@@H]3O[C@@H]5CO[C@@H](C)O[C@H]5[C@H](O)[C@H]3O)[C@H]3COC(=O)[C@H]23)OCO4)c(Cl)c(OC)c1O`: the CC50 in the assay with HCT-116 [1] was determined as 120 µM. The result (in assay [6]; in the assay on HCT-116 [7]; in the assay on HCT-116 [8]; in assay [9]) was Active. In addition, the inhibition result in [3] is “Active”.

`COc1cc([C@@H]2c3cc4c(cc3[C@H](O)[C@H]3COC(=O)[C@H]23)OCO4)cc(OC)c1OC`: the inhibition result in assay [3] was “inactive”.

Take `COc1c(Cl)c([C@@H]2c3cc4c(cc3[C@H](O)[C@H]3COC(=O)[C@H]23)OCO4)c(Cl)c(OC)c1OC`: the CC50 in the assay on HCT-116 [1] came to 20 µM; in the assay on A549 [5], 17 µM. For the same molecule, the result (in assay [6]; in the assay on HCT-116 [7]; with HCT-116 [8]) was Active. Besides, the inhibition result in [3] is “Active”.

`COc1cc([C@@H]2c3cc4c(cc3[C@H](O)[C@H]3COC(=O)[C@H]23)OCO4)c(Cl)c(OC)c1OC`: the inhibition entry in assay [3] is “inactive”.
